Experimental data: patent publication US10287297B2, “Epoxyazulene derivatives useful for treating cancer and diabetes” (The United States of America, as represented by the …, priority 2015, dated 2019)

What was measured:
Assay type in all cases: cell-based
[1] = tested on: HCT-116; assay: NCI 60 cell assay, colon HCT-116; details: Homo sapiens, 48 h; HCT-116 (colon); drug exposure two days, SRB endpoint; read-out: GI-50 value
Protocol: (§1) Samples were tested in the standard National Cancer Institute 60-cell line protocol. First, they were tested against all 60 cell lines in a single final concentration of 10 micromolar. Then, they were separately tested in five 10-fold dilutions. The drug exposure was two days, with an SRB endpoint.

[2] = tested on: EKVX; assay: NCI 60 cell assay, NSCLC EKVX; details: Homo sapiens, 48 h, drug exposure two days, SRB endpoint, read-out: GI-50 value
Protocol: as §1

[3] = tested on: HCT-15; assay: NCI 60 cell assay, colon HCT-15; details: Homo sapiens, 48 h; HCT-15 (colon); drug exposure two days, SRB endpoint; read-out: GI-50 value
Protocol: as §1

[4] = tested on: HL-60(TB); assay: NCI 60 cell assay, leukemia HL-60(TB); details: Homo sapiens, 48 h; HL-60(TB) (leukemia); drug exposure two days, SRB endpoint; read-out: GI-50 value
Protocol: as §1

[5] = tested on: HOP-92; assay: NCI 60 cell assay, NSCLC HOP-92; details: Homo sapiens, 48 h; HOP-92 (NSCLC); drug exposure two days, SRB endpoint; read-out: GI-50 value
Protocol: as §1

[6] = tested on: BT-549; assay: NCI 60 cell assay, breast BT-549; details: Homo sapiens, 48 h; BT-549 (breast); drug exposure two days, SRB endpoint; read-out: GI-50 value
Protocol: as §1

[7] = tested on: MDA-MB-231/ATCC; assay: NCI 60 cell assay, breast MDA-MB-231/ATCC; details: Homo sapiens, 48 h; MDA-MB-231/ATCC (breast); drug exposure two days, SRB endpoint; read-out: GI-50 value
Protocol: as §1

[8] = tested on: IGROV1; assay: NCI 60 cell assay, ovarian IGROV1; details: Homo sapiens, IGROV-1, 48 h, drug exposure two days, SRB endpoint, read-out: GI-50 value
Protocol: as §1

[9] = tested on: A549/ATCC; assay: NCI 60 cell assay, NSCLC A549/ATCC; details: Homo sapiens, 48 h, drug exposure two days, SRB endpoint, read-out: GI-50 value
Protocol: as §1

[10] = tested on: TK-10; assay: NCI 60 cell assay, renal TK-10; details: Homo sapiens, 48 h; TK-10 (renal); drug exposure two days, SRB endpoint; read-out: GI-50 value
Protocol: as §1

[11] = tested on: LOX IMVI; assay: NCI 60 cell assay, melanoma LOX IMVI; details: Homo sapiens, 48 h, drug exposure two days, SRB endpoint, read-out: GI-50 value
Protocol: as §1

[12] = tested on: SN12C; assay: NCI 60 cell assay, renal SN12C; details: Homo sapiens, 48 h, drug exposure two days, SRB endpoint, read-out: GI-50 value
Protocol: as §1

[13] = tested on: SNB-75; assay: NCI 60 cell assay, CNS SNB-75; details: Homo sapiens, 48 h; SNB-75 (CNS); drug exposure two days, SRB endpoint; read-out: GI-50 value
Protocol: as §1

[14] = tested on: SF-295; assay: NCI 60 cell assay, CNS SF-295; details: Homo sapiens, 48 h; SF-295 (CNS); drug exposure two days, SRB endpoint; read-out: GI-50 value
Protocol: as §1

[15] = tested on: PC-3; assay: NCI 60 cell assay, prostate PC-3; details: Homo sapiens, 48 h; PC-3 (prostate); drug exposure two days, SRB endpoint; read-out: GI-50 value
Protocol: as §1

[16] = tested on: CCRF-CEM; assay: NCI 60 cell assay, leukemia CCRF-CEM; details: Homo sapiens, 48 h, drug exposure two days, SRB endpoint, read-out: GI-50 value
Protocol: as §1

[17] = tested on: A498; assay: NCI 60 cell assay, renal A498; details: Homo sapiens, 48 h, drug exposure two days, SRB endpoint, read-out: GI-50 value
Protocol: as §1

[18] = tested on: NCI-H522; assay: NCI 60 cell assay, NSCLC NCI-H522; details: Homo sapiens, 48 h, drug exposure two days, SRB endpoint, read-out: GI-50 value
Protocol: as §1

[19] = tested on: OVCAR-8; assay: NCI 60 cell assay, ovarian OVCAR-8; details: Homo sapiens, 48 h; OVCAR-8 (ovarian); drug exposure two days, SRB endpoint; read-out: GI-50 value
Protocol: as §1

[20] = tested on: COLO 205; assay: NCI 60 cell assay, colon COLO 205; details: Homo sapiens, 48 h; COLO 205 (colon); drug exposure two days, SRB endpoint; read-out: GI-50 value
Protocol: as §1

[21] = tested on: RPMI-8226; assay: NCI 60 cell assay, leukemia RPMI-8226; details: Homo sapiens, 48 h; RPMI-8226 (leukemia); drug exposure two days, SRB endpoint; read-out: GI-50 value
Protocol: as §1

[22] = tested on: KM12; assay: NCI 60 cell assay, colon KM12; details: Homo sapiens, 48 h, drug exposure two days, SRB endpoint, read-out: GI-50 value
Protocol: as §1

[23] = tested on: 786-0; assay: NCI 60 cell assay, renal 786-0; details: Homo sapiens, 48 h; 786-0 (renal); drug exposure two days, SRB endpoint; read-out: GI-50 value
Protocol: as §1

[24] = tested on: UO-31; assay: NCI 60 cell assay, renal UO-31; details: Homo sapiens, 48 h; UO-31 (renal); drug exposure two days, SRB endpoint; read-out: GI-50 value
Protocol: as §1

[25] = tested on: NCI/ADR-RES; assay: NCI 60 cell assay, ovarian NCI/ADR-RES; details: Homo sapiens, 48 h, drug exposure two days, SRB endpoint, read-out: GI-50 value
Protocol: as §1

[26] = tested on: K-562; assay: NCI 60 cell assay, leukemia K-562; details: Homo sapiens, K562, 48 h; K-562 (leukemia); drug exposure two days, SRB endpoint; read-out: GI-50 value
Protocol: as §1

[27] = tested on: SK-MEL-2; assay: NCI 60 cell assay, melanoma SK-MEL-2; details: Homo sapiens, 48 h; SK-MEL-2 (melanoma); drug exposure two days, SRB endpoint; read-out: GI-50 value
Protocol: as §1

[28] = tested on: RXF 393; assay: NCI 60 cell assay, renal RXF 393; details: Homo sapiens, 48 h; RXF 393 (renal); drug exposure two days, SRB endpoint; read-out: GI-50 value
Protocol: as §1

| Compound | GI50 [1] | GI50 [2] | GI50 [3] | GI50 [4] | GI50 [5] | GI50 [6] | GI50 [7] | GI50 [8] | GI50 [9] | GI50 [10] | GI50 [11] | GI50 [12] | GI50 [13] | GI50 [14] | GI50 [15] | GI50 [16] | GI50 [17] | GI50 [18] | GI50 [19] | GI50 [20] | further results |
| --- | --- | --- | --- | --- | --- | --- | --- | --- | --- | --- | --- | --- | --- | --- | --- | --- | --- | --- | --- | --- | --- |
| CC1=C2[C@@H](CC1)[C@]1(C)O[C@@](c3ccccc3)(C[C@H]1OC(=O)CO)[C@H]2OC(=O)C=Cc1ccccc1 [(Ir), (3aR,4S,5R,7R,8S)-5-(2-hydroxyacetoxy)-1,4-dimethyl-7-phenyl-2,3,3a,4,5,6,7,8-octahydro-4,7-epoxyazulen-8-yl cinnamate] | 15 µM | 15 µM | 13 µM | 16 µM | 14 µM | 710 nM | 19 µM | 24 µM | 15 µM | 23 µM | 17 µM | 11 µM | 15 µM | 14 µM | 10 µM | 20 µM | 89 nM | 17 µM | 260 nM | 15 µM | GI50 [21]: 13 µM; GI50 [22]: 16 µM; GI50 [23]: 14 µM; GI50 [24]: 550 nM; GI50 [25]: 340 nM; GI50 [26]: 16 µM; GI50 [27]: 16 µM; GI50 [28]: 27 nM |
| CC1=C2[C@@H](CC1)[C@]1(C)O[C@@](C(C)C)(C[C@H]1OC(=O)[C@H](C)O)[C@H]2OC(=O)C=Cc1ccccc1 [(Il), (3aR,4S,5R,7R,8S)-5-(((S)-2-hydroxypropanoyl)oxy)-7-isopropyl-1,4-dimethyl-2,3,3a,4,5,6,7,8-octahydro-4,7-epoxyazulen-8-yl cinnamate] | 12 µM | 10 µM | 12 µM | 11 µM | 6 µM | 1400 nM | 15 µM | 19 µM | 13 µM | 17 µM | 15 µM | 0.21 µM | 24 µM | 11 µM | 4 µM | 16 µM | 210 nM | 13 µM | 350 nM | 17 µM | GI50 [21]: 8 µM; GI50 [22]: 16 µM; GI50 [23]: 13 µM; GI50 [24]: 710 nM; GI50 [25]: 420 nM; GI50 [26]: 15 µM; GI50 [27]: 15 µM; GI50 [28]: 45 nM |
